# Laboratory results published in US20160176859A1, “High-Throughput Assay for Identifying Small Molecules that Modulate AMP-activated Protein Kinase (AMPK)” (North Carolina Central University, priority 2013, published 2016).
# Legend:
# [1] = test system: p-ACC levels in HEK cells; assay: Cell-intact assay, p-ACC levels in HEK cells; assay type: cell-based, human; details: serum starvation followed by 10% serum; 1 hour
# Description: (§1) Cell-intact assays. HEK cells were grown in DMEM with 10% FBS and 1% penicillin/streptomycin at 37° C. A subset of plates was serum-starved for 5 hours on the day of the experiment. After 5 hours of serum-starvation, cells were treated with either controls (0.2% DMSO, A-769662, or Compound C) or small molecules in the absence of serum for an additional hour prior to lysis. Another subset of plates was serum-starved for 6 hours and then treated with either controls or small molecules for 1 hour in the presence of 10% FBS. A time course of both AMPK and ACC phosphorylation in HEK cells during serum starvation has already been published (Pirkmajer S, Chibalin A V. Serum starvation: caveat emptor. American journal of physiology Cell physiology. 2011 August; 301(2):C272-9. PubMed PMID: 2161361).
# (§2) After incubating in the presence of drugs for one hour, cells were washed three times with ice-cold PBS and lysed according to published methods (Kazgan N, Williams T, Forsberg L J, Brenman J E. Identification of a nuclear export signal in the catalytic subunit of AMP-activated protein kinase. Molecular biology of the cell. 2010 Oct. 1; 21(19):3433-42. PubMed PMID: 20685962. Pubmed Central PMCID: 2947478). Lysates were centrifuged at 16,000 g (10 minutes, 4° C.). Clarified supernatant (30 μL) was then transferred to 10 μL 4X loading buffer and 2 μL 1 M DTT. Samples were immediately frozen at −20° C. The concentration of protein in diluted clarified supernatant was calculated using a DC protein assay kit (BioRad) prior to western analyses.
# Western analyses. Protein samples were boiled for 15 minutes in loading buffer and DTT prior to SDS-PAGE. Blots for protein-based assays were sequentially incubated with the following: 5% BSA in 1× TBS (1 hr, 22° C.), 1:1000 rabbit anti-human p-AMPK-α antibody or p-ACC antibody (2 hr, 22° C.), and 1:10,000 donkey anti-rabbit secondary antibody (1 hr, 22° C.). Blots for phosphatase assays were probed a second time using 1:100 mouse anti-human total AMPK antibody (overnight, 4° C.; from UNC Antibody Core Facility) followed by 1:10,000 donkey anti-mouse secondary antibody (1 hr, 22° C.). Blots for clarified cell lysates were sequentially probed for p-AMPK (1:500 dilution, overnight at 4° C. or 4 hours at 22° C.), total ACC (1:1000 dilution, overnight at 4° C. or 4 hours at 22° C.), and tubulin (1:10,000 dilution, 1 hr, 22° C.); a parallel set of blots were probed for p-ACC (1:500 dilution, overnight at 4° C. or 4 hours at 22° C.), total AMPK (1:1000 dilution, overnight at 4° C. or 4 hours at 22° C.), and tubulin (1:10,000 dilution, 1 hr, 22° C.). Because phosphorylated and total protein were imaged on separate membranes, the signals were normalized to the internal tubulin signal prior to calculating the ratio of phosphorylated to total protein. Scanning and imaging were completed according to published methods.
# [2] = test system: p-AMPK levels in HEK cells; assay: Cell-intact assay, p-AMPK levels in HEK cells; assay type: cell-based, human; details: serum starvation followed by 10% serum; 1 hour
# Description: as §1
# as §2, with “Lysates were centrifuged at 16,000 g (10 minutes, 4° C.). Clarified supernatant (30 μL) was then transferred to 10 μL 4X loading buffer and 2 μL 1 M DTT. Samples were immediately frozen at −20° C.” left out, “analyses. […]” for “analyses.”
smiles,measurement,setting,value
"N#Cc1c(O)c2c(-c3ccc(-c4ccccc4O)cc3)csc2[nH]c1=O [Example A-769662, reference compound]","p-ACC levels (substrate phosphorylation), pre-conditioned HEK cells",[1],increased
same,"p-AMPK levels, pre-conditioned HEK cells",[2],increased
